Several values for one entry are separate records, joined by “and”; a condition that tells them apart may be missing. Identical values can stand only once.
Legend:
[1] = system: ERK1/2 phosphorylation through MrgprX1; assay: Immunoblot of ERK1/2 phosphorylation in HEK293T cells expressing MrgprX1; format: cell-based, human; settings: HEK-MrgprX1 cells, 10 μM BBM for 10 min prior to CQ
[2] = molecular target: T1, MrgprX1 (Homo sapiens, UniProt Q96LB2); assay: Intracellular calcium measurement (Fluo-4 NW) in HEK293T cells expressing MrgprX1; format: cell-based
T1 construct: expressed in transfected cells
T1 sequence (Q96LB2 whole entry): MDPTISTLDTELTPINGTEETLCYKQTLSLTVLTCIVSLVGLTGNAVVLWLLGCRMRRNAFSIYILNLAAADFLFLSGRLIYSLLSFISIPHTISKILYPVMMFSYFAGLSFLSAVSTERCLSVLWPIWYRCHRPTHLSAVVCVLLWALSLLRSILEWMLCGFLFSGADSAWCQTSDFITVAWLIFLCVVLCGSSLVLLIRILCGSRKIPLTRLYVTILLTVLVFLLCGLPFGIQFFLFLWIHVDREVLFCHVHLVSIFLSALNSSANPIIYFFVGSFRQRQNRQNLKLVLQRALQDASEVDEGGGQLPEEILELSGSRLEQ
Method: To identify novel antagonists of MrgprX1, a cell-based screening assay was established. […] Cells were treated with the indicated concentrations of CQ where the arrow indicates. (B) Summary of dose-response (mean ± S.E., n = 6). (C) Representative Fluo−4 fluorescence traces of MrgprX1 antagonist screening. Cells were treated with 30 μM of the test compounds for 10 min prior to treatment with 300 μM CQ.
Figure 2 Effect of berbamine and closantel on CQ- and ionomycin-induced increases in intracellular calcium levels: (A,B) Intracellular calcium levels were measured using Fluo−4 NW in HEK293T cells expressing MrgprX1. The cells were pretreated with the indicated concentrations of berbamine (BBM) and closantel (CLS) for 10 min prior to treatment with 300 μM CQ. (C) Summary of dose-response (mean ± S.E., n = 6). […] The cells were pretreated with the indicated concentrations of BBM and CLS for 10 min before treatment with ionomycin. (F) Summary of dose–response (mean ± S.E., n = 6).
Intracellular calcium levels were measured using a Fluo-4 NW calcium assay kit (Invitrogen, Carlsbad, CA) as per the manufacturer’s protocol in HEK293T and HT29 cells. Briefly, the cells were plated in a 96-well black-walled plate and incubated with 100 μL of assay buffer including Fluo-4 NW. […] Intracellular calcium increase was induced with the application of the indicated agonist. All modulators were dissolved in DMSO, and cells were treated with a final concentration of 1% DMSO.

[3] = molecular target: T2, PAR2 (Homo sapiens, UniProt P55085); assay: PAR2-AP-induced activation of PAR2 in HT29 cells (calcium); format: cell-based; settings: 30 μM compound, 10 min prior to 30 μM PAR2-AP
T2 construct: endogenous in cells; host or cells: HT29
T2 sequence (P55085 26-397): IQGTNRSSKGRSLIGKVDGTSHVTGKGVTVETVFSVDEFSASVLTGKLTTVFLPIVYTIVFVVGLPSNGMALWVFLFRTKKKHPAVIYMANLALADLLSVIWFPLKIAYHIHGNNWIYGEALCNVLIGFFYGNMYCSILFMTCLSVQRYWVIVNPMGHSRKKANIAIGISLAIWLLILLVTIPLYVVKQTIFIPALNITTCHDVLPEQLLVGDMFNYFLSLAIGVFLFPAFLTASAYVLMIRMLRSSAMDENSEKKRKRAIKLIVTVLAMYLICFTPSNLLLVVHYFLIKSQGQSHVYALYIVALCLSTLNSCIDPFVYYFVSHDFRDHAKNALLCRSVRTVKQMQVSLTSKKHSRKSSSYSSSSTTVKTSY
Method: To investigate the effect of berbamine on other pruritogenic GPCRs, we observed the effect of berbamine on histamine H1 receptor (H1R), histamine H4 receptor (H4R), MrgprC11, MrgprX4, PAR2, and TGR5.
Figure 3 Effects of berbamine on the activity of other pruritogenic GPCRs: (A,B) Effect of berbamine on histamine 1 receptor (H1R) and histamine 4 receptor (H4R). H1R- and H4R-expressing HEK293T cells were pretreated with 30 μM BBM for 10 min prior to 100 μM histamine treatment. […] (C) Effect of berbamine on PAR2. HT29 cells were pretreated with BBM for 10 min prior to 30 μM PAR2-AP treatment. […] (D) Effect of berbamine on MrgprC11. MrgprC11-expressing HEK293T cells were pretreated with BBM for 10 min prior to 100 μM […] treatment. (E) Effect of berbamine on MrgprX4. MrgprX4-expressing HEK293T cells were pretreated with BBM for 10 min prior to 80 μM DCA treatment. (F) Effect of berbamine on TGR5. TGR5 activity was measured using a YFP fluorescence quenching assay. CHO-K1 cells coexpressing TGR5 and a halide sensor YFP were pretreated with BBM and 80 μM DCA for 10 min prior to I^- treatment. Results were summarized as means ± S.E. (n = 6). NTC, nontransfected cells.
Intracellular calcium levels were measured using a Fluo-4 NW calcium assay kit (Invitrogen, Carlsbad, CA) as per the manufacturer’s protocol in HEK293T and HT29 cells. […]

[4] = system: CQ-induced pruritus; assay: CQ-induced pruritus mouse model (scratching bouts); format: in vivo, BALB/c mice; settings: 30 mg/kg intraperitoneally, 30 min before s.c. CQ (400 µg/50 µL), 30 min recording
Method: To investigate the antipruritic effect of berbamine, we observed the effect of berbamine on pruritogen-induced scratching behavior in BALB/c mice. Mice were transferred to clear cages and treated with berbamine intraperitoneally after a 30 min acclimatization period. Mouse behavior was recorded for 30 min right after the subcutaneous injection of pruritogens to the nape 30 min after berbamine treatment (Figure 7A). […] We further investigated the effect of berbamine on pruritus caused by other pruritogens.
Figure 7 Effect of berbamine on acute pruritogen-induced pruritus in mice: (A) Scheme of acute pruritogen-induced pruritus mouse model. […] Statistical significance of differences between each group and CQ group was assessed using one-way ANOVA with Tukey’s post hoc test. * p < 0.05, ** p < 0.01, *** p < 0.001. […] Statistical significance of differences was determined using Student’s t-test. […]
[…] six-week-old BALB/c male mice were purchased from DBL (Chungcheong-do, Republic of Korea), and an additional 1 week was given for accommodation. […] After 30 min, pruritogen compounds (i.e., CQ, histamine, PAR2-AP, and DCA) were subcutaneously administered into the nape, and scratching bouts were recorded for 30 min. […] The total number of scratching bouts was counted by recording the number of scratching bouts in the recorded video over 30 min of observation time.

With COc1cc2c3cc1Oc1c(OC)c(OC)cc4c1[C@@H](Cc1ccc(O)c(c1)Oc1ccc(cc1)C[C@@H]3N(C)CC2)N(C)CC4 [berbamine] the “effect on CQ-induced ERK1/2 phosphorylation” value [1] was “significantly reduced”, the “activation of MrgprX1 by the compound itself” value ([2]; 30 μM berbamine (Figure S1)) was “did not activate MrgprX1 by itself” and the “mode of inhibition of the activation of MrgprX1 by CQ” value ([2]; 30 μM berbamine, CQ dose response (Figure S3)) was “competitive inhibitory effect”. For the same molecule, the “inhibition of MrgprX1 activation by BAM8-22” value ([2]; 10 min pretreatment, 500 nM BAM8-22 (Figure S2)) was “did not potently inhibit”, the inhibition at 30 µM ([2]; HEK-293T, 30 μM test compound for 10 min, then 300 μM CQ, read-out: inhibition of the CQ-induced activation of MrgprX1 (screening)) was > 90% and the IC50 ([2]; pretreated 10 min prior to 300 μM CQ, read-out: IC50 of inhibition of CQ-induced MrgprX1 activation) was 1.6 µM. For the same molecule, the “effect on PAR2-AP-induced activation of PAR2” value [3] was “did not affect” and the “attenuation of CQ-induced pruritus (total scratching bouts)” value [4] was 80% and ~ 80%.
